Ends that are not written are not given here.
Legend:
[1] = system: GABAA; assay: GABAA ion channel assay; assay type: cell-based; conditions: FLIPR Tetra, up to 30 µM, read-out: RC50 (the source's name)
Description: Ion Channel Assays: Cell lines were grown, plated, and loaded with 1× loading buffer containing 1× dye and 2.5 mM freshly prepared probenecid. Assays were performed, and activity was measured using a FLIPR Tetra. Percent of activation and percent of inhibition were calculated to determine agonist and antagonist activity, respectively. […]
in complementation with EA generating a unit of active β-gal and based assay for the detection of dopamine, norepinephrine or sero-production of a chemiluminescent signal upon the addition of Path- tonin transporter activity in cells expressing these transporters. The Hunter detection reagents. kit employs a fluorescent substrate that mimics the biogenic amine neurotransmitters that are taken into the cell through these specific transporters, resulting in increased intracellular fluorescence inten-sity. […]
KINOMEscan® Assay fluorescence for improved signal/noise ratio. […]
Compounds that bind the kinase active site and directly (sterically) be monitored within a single experiment. or indirectly (allosterically) prevent kinase binding to the immobi-lized ligand, will reduce the amount of kinase captured on the solid Calcium Assay […]
kinase have no effect on the amount of kinase captured on the of changes in intracellular calcium. […] In a similar manner, dissociation con- an increase of dye fluorescence. […]

[2] = target: T1, HEK-Nav1.5 (Late, Antagonist) (Homo sapiens, UniProt Q14524); assay type: cell-based; conditions: CTP 0.1 to 30 µM; HEK cells; late current, ramp with 50nM ATXII; antagonist; 0.1% Pluronic F-68
T1 construct: CYL7004QB2DR (late); host or cells: HEK
T1 sequence (Q14524 whole entry): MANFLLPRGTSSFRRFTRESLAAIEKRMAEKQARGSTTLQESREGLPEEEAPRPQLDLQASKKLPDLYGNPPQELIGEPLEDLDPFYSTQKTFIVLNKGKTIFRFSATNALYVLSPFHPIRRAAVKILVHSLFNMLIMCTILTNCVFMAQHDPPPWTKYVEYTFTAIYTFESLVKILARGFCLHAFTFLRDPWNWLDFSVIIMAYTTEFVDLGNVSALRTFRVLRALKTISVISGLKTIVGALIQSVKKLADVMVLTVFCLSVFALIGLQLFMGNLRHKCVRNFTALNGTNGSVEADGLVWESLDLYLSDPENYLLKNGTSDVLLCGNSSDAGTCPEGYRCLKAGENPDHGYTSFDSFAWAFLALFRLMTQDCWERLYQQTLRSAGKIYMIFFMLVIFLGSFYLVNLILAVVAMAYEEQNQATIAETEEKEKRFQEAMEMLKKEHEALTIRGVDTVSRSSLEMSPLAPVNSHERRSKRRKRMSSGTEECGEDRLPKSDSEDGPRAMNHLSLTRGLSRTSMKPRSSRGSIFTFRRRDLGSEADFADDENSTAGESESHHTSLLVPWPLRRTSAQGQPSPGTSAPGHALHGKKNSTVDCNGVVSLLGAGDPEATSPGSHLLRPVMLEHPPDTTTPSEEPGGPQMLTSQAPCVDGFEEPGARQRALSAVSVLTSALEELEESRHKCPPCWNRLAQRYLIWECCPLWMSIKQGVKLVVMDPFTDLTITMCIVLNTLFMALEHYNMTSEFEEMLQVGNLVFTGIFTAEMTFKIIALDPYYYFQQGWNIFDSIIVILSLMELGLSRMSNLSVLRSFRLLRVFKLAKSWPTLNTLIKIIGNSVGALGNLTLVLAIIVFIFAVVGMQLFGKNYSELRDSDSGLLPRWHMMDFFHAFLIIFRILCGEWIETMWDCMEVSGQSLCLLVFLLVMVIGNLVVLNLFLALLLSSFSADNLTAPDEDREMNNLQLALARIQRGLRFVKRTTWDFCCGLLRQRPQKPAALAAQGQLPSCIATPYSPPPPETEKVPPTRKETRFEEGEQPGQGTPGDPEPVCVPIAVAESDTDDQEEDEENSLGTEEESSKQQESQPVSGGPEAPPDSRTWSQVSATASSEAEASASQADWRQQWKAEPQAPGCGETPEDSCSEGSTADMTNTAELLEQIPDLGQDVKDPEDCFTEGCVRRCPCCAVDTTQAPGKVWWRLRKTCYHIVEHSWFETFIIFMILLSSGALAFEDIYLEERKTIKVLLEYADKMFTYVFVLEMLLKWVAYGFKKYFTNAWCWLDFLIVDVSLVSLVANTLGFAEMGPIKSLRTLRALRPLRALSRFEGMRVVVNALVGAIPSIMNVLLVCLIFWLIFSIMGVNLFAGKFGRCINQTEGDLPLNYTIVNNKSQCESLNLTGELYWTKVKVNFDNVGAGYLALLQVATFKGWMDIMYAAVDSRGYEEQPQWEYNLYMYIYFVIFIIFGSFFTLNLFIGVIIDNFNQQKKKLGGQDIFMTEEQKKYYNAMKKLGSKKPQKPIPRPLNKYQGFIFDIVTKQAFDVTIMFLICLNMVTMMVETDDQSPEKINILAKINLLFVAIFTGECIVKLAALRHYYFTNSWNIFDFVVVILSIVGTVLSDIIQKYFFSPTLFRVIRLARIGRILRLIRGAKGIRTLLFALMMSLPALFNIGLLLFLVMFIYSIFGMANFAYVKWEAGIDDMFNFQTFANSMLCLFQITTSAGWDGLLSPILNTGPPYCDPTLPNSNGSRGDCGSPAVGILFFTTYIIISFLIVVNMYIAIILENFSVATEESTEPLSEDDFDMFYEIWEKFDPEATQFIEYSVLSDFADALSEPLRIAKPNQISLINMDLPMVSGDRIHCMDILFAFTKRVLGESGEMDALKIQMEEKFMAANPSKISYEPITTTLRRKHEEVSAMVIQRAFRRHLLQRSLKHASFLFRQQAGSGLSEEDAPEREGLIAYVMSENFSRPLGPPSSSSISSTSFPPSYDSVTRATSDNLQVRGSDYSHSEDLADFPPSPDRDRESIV

[3] = target: HEK-Nav1.5 (Peak) (Homo sapiens, UniProt Q14524); assay: hNav1.5 (Peak) Sodium Channel Assay - Qube APC; conditions: CTP 0.1 to 30 µM; HEK cells; peak current, step to -15mV; 0.1% Pluronic F-68
Sequence of HEK-Nav1.5 (Peak) (Q14524 whole entry): as above

[4] = target: CHO-KCNQ1/minK (Homo sapiens, UniProt P15382+P51787); conditions: CTP 0.1 to 30 µM; CHO cells; step to +60mV; 0.1% Pluronic F-68
[5] = system: CD1, wild type, adult mice; assay: Cardiac MRI pre- and post-CTP injection; assay type: in vivo, mouse; conditions: male or female mice; immediately after CTP 150 µg/Kg i.v.; vs baseline
Description: Cardiac Function Studies, Pre- and Post-Injections: Six CD1, wild type, 6–8-week-old adult mice were obtained from the Charles River and used for cardiac MRI studies. Mice were weighed, anesthetized with 2.5% isoflurane, and ear tags removed before being inserted into the MRI scanner. A baseline cardiac MRI was performed, followed by intravenous CTP injection (150 µg/Kg). Post-injection, a second cardiac MRI was performed.

APWHLSSQYSRT [CTP] was tested, and the EC50 ([1]; agonist (opener)) was over 30 µM, the IC50 ([1]; antagonist (blocker)) was over 30 µM and the “Estimated IC50” value [2] was “N/C (Not calculable, inhibition >25% was not observed.)”. For the same sequence, the “Estimated IC50” value [3] was “N/C (Not calculable, inhibition >25% was not observed.)”, the “Estimated IC50” value [4] was “N/C (Not calculable, inhibition >25% was not observed.)” and the cardiac output [5] was “no significant change”. For the same sequence, the ejection fraction [5] was “no significant change”, the heart rate [5] was “no significant change” and the left ventricular mass [5] was “no significant change”.
